Data from US20070148094A1, “Polymeric imaging agents and medical imaging methods” (priority 2005, published 2007).

Tested on: rat mammary tumor line (MAT-B-III)
Experiment: Optical (NIR fluorescence) imaging of tumor to background ratio in tumor rat model
Assay type: in vivo
Text: For optical imaging the signal to ratio background ratio is defined as the mean fluorescence intensity (target tissue)/mean fluorescence intensity (background tissue). For optical imaging methods, target to background ratio may be determined using computer-controlled (LabVIEW) camera acquisition via custom LabVIEW software. […] A region of interest (ROI) maybe defined in both the tumor area and the background tissue area. Fluorescence emission from the ROI may be received at a near-infrared sensitive 12-bit CCD camera, in which the intensities range from 0-4095.
Optical Imaging Using Tumor Rat Model. Step 1. Introduction of Tumor Cells into Animal. Intra-mammary gland tumor injection is a survival surgery. All procedures are performed with the animal lying on a circulating water pad. With the anesthetized rat lying on its back, the sterile prepped ventral abdominal skin is picked up, just above the left groin (inguinal) area and a small incision is made with scissors being careful to avoid the underlying peritonium. The fourth mammary gland is easily visible, lying on the dorsal surface of the skin directly on top of a junction point for the mammary artery and vein. Using a 1 cc syringe, 10^6 cells (0.1 ml) were injected directly into the gland. Only one mammary gland per rat was inoculated with tumor cells. The skin wound was closed with surgical staples. Surgical staples were removed 3 days after insertion.
Animals are treated with test agents and imaged 7 days after tumor injections. Test agents are administered via a tail vein injection (100-500 μl). For MR studies, animals received a pre-injection scan, followed by post-injection scans. Images were obtained post injection at approximately 4-minute intervals following injection for up to 30-40 minutes. In some experiments images were again taken at 24 hours after injection. For optical studies, animals were imaged at 0.5, 6, 12, and 24 hours.
Step 2. Agent Administration. After approximately 8 days following tumor cell implantation (the tumor size reached about 5-10 mm diameter) one of several imaging agents listed in Table 2 was administered to the animal at the corresponding dosage indicated in Table 2.
Step 3. Surgical Resection. Surgical tumor resection is a non-survival surgery. Tumors were resecteded when they reached a diameter in the range of 5-10 mm in diameter. With the anesthetized rat lying on its back, the ventral abdominal skin is picked up, just above the left groin (inguinal) area and a small incision is made (at or near the site of tumor inoculation) with scissors being careful to avoid the underlying peritonium. The tumor, growing in the mammary gland, stays contained in this tissue and is easily removed. The tumor was held with a pair of forceps and using a scalpel is removed from the surrounding connective tissue. After the tumor was removed, a midline incision, through the peritoneum was made, other organs were observed and imaged, and sampled for histological and biodistribution studies.
Step 4. Data Capture. Images were captured for later evaluation of the relative intensity of fluorescence in the kidney, liver, bladder, muscle etc. Samples of blood and urine were acquired and stored, the animal was sacrificed, and the clearance organs were removed from animal and frozen in a slurry of dry ice and 2-methylbutane. The tissues were then placed in an embedding medium (OCT, […]) and frozen at −80° C. Blood and urine samples were analyzed for concentration of agent at this time point, and for evidence of metabolism of the administered agent.
Statistical Analysis of Optical Imagine Results. To reduce the large number of variables in this problem and one polymer length (˜400 residues) was chosen at a high percentage conjugation (˜96%) for the MR imaging moiety (Gd-DTPA) with one dye per molecule. In one set of experiments, a tetra-sulfonated dye (Cy5.5-NHS-Ester) was then compared with a bis-sulfonated dye (Cy5-NHS-Ester). […]

CC[N+]1=C(C=CC=CC=C2N(CCCCCC(=O)O)c3ccc(S(=O)(=O)[O-])cc3C2(C)C)C(C)(C)c2cc(S(=O)(=O)[O-])ccc21.[Na+] [Cy5 free dye, 2-[5-[1-(5-carboxypentyl)-1,3-dihydro-3,3-dimethyl-5-sulfo-2H-indol-2-ylidene]-penta-1,3-dienyl]-3,3-dimethyl-5-sulfo-1-ethyl-3H-indolium, inner salt, sodium salt]
Average of Tumor/Bkgnd (dose printed as 'blank', 6 hours post injection): 1.17 | Average of Tumor/Bkgnd (dose printed as 'blank', 12 hours post injection): 1.18 | Average of Tumor/Bkgnd (dose printed as 'blank', 24 hours post injection): 1.17 | Average of Tumor/Bkgnd (dose printed as 'blank', Total over time points): 1.17 | Average of Tumor/Bkgnd (vector subtotal over all doses, 6 hours post injection): 1.17 | Average of Tumor/Bkgnd (vector subtotal over all doses, 12 hours post injection): 1.18 | Average of Tumor/Bkgnd (vector subtotal over all doses, 24 hours post injection): 1.17 | Average of Tumor/Bkgnd (vector subtotal over all doses, Total over time points): 1.17
